Values of other authors, collected in patent US20250345332A1, “APROCITENTAN FOR THE TREATMENT OF HYPERTENSION” (IDORSIA PHARMACEUTICALS LTD, priority 2022, published 2025).

Assays:
[1] = test system: patients with rHT; conditions: cited from earlier work
[2] = test system: patients with type 2 diabetes and overt diabetic nephropathy; conditions: in vivo; cited from earlier work
[3] = test system: subjects having essential hypertension; conditions: lisinopril 20 mg, cited from earlier work
[4] = test system: subjects having essential hypertension; conditions: after 8 weeks once daily, at trough, aprocitentan 5, 10, 25, 50 mg groups, lisinopril 20 mg, cited from earlier work

COc1cc(OC)nc(O[C@H](C(=O)O)C(OC)(c2ccccc2)c2ccccc2)n1 [darusentan]
reduction of ambulatory blood pressure ([1]; 14 weeks): demonstrated efficacy
treatment effect on the primary endpoint systolic blood pressure ([1]; 14 weeks): failed to show significant treatment effect
fluid retention/edema (most frequent adverse event) ([1]; versus 12% in each of the other groups): 28%

COc1ccccc1Oc1c(NS(=O)(=O)c2ccc(C)cn2)nc(-c2ccncc2)nc1OC [Avosentan, avosentan]
albumin-to-creatinine ratio (ACR) [2]: significantly reduced

NCCCC[C@H](N[C@@H](CCc1ccccc1)C(=O)O)C(=O)N1CCC[C@H]1C(=O)O [lisinopril, reference compound]
discontinuation from study treatment due to an adverse event ([3]; aprocitentan 5-50 mg groups): 3.7%
mean body weight decrease from baseline [3]: 0.3 kg
mean reduction from baseline in diastolic blood pressure ([4]; per-protocol population): 8.4 mmHg
systolic blood pressure reductions [4]: 12.8 mmHg
